Consider 34 compounds from US8772500B2, “TRPV3 modulators” (AbbVie Inc., priority 2011, dated 2014).

The nature of data set [1]: In vitro rat microsomal stability assay. Format: in vitro ADME, rat (Sprague-Dawley). The conditions noted are these: Sprague-Dawley, rat, 0.5 h, 0.5 μM, pH 7.4. The procedure, abridged: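 Metabolic stability was measured in liver microsomes from Sprague-Dawley rat or from human. Incubations ran at 37 °C with NADPH as cofactor, and NADPH was also added to the time-zero samples.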

The target in data set [2] is T1, human TRPV3 (Homo sapiens, UniProt Q8NET8).
T1 construct: expressed in transfected cells
T1 sequence (Q8NET8 1-790): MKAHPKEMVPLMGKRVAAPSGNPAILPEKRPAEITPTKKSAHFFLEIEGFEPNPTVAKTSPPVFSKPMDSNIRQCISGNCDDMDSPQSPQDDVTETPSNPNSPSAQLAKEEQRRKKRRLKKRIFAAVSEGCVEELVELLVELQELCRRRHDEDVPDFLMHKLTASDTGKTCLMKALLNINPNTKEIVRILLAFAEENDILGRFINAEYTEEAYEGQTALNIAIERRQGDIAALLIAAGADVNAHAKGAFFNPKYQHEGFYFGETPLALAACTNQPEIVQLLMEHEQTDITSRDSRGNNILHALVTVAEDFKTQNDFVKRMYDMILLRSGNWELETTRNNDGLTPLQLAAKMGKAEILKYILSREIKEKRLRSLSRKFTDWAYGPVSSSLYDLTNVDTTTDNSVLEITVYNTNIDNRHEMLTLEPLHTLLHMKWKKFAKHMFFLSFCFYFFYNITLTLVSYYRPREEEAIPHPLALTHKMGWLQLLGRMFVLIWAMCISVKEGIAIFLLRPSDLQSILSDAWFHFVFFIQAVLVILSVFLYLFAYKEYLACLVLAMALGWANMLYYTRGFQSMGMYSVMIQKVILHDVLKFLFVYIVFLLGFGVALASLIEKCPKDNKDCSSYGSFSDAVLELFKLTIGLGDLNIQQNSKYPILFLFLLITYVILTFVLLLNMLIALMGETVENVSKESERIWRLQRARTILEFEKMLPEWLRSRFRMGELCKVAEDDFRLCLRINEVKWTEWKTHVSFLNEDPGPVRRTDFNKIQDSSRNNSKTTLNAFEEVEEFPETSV
The data set is described as follows: In vitro antagonism of recombinant human TRPV3 activation (FLIPR Tetra calcium assay, 2-APB as agonist). The class given is cell-based. Conditions: HEK293 cells stably expressing human TRPV3; 2-APB 80 μM; range class; read-out: IC50 (reported range). As for the experimental part: Test compounds were evaluated for ability to antagonize the activation of recombinant human TRPV3 using FLIPR® Tetra cellular screening. Specifically, on the day prior to the experiment recombinant HEK293 cells that stably express human TRPV3 were removed from tissue culture flasks and plated in growth medium at 20,000 cells/well into Poly-d-lysine coated black/clear 384-well Plate (Corning, 3845) using a Multidrop® dispenser (ThermoScientific, Waltham, Mass.). Prior to the start of the assay, the medium was removed by aspiration, and cells were loaded with 30 μL no-wash FLIPR® Calcium-4 dye (λEX=470-495 nm, λEM=515-575 nm; Molecular Devices, Sunnyvale, Calif.). The cells were then incubated for 90-120 minutes in the dark prior to addition of the test compound.
A double-addition protocol was used. The test compound (i.e., the TRPV3 antagonist) was added at the 10 second time point, followed by the addition of a TRPV3 agonist three minutes later. Each test compound evaluated was first dissolved in DMSO to prepare a 10 mM stock solution. A solution (5×) of the test compound was then prepared in DPBS (Dulbecco's Phosphate Buffered Saline) and 10 μL of that solution was added to the cells at a delivery rate of 40 μL/sec. The TRPV3 agonist used to activate human TRPV3 expressed by the […] was 2-aminoethoxy-diphenyl borate (2-APB; Tocris Cookson, Ellisville, Mo.) at 80 μM. Final assay volume was 50 μL. Total length of an experimental run was 10 minutes.
Changes in fluorescence were measured over time using the FLIPR® instrument. The intensity of the fluorescence was captured and digitally transferred to an interfaced computer. The maximum response minus minimum response was calculated and expressed as the percentage of the maximum 2-APB response in the absence of antagonist. The concentration of 2-APB corresponds to its EC80.
Table 1 reports the IC50 values measured for the test compounds as human TRPV3 antagonists. […] Actual measured values are shown parenthetically after the reported range. In most cases, the values reported are average values from at least two runs (i.e., n≧2).

SMILES strings stand for the structures. pIC50: −log10 of the molar value.

By pIC50 is commonly meant the IC50 on a negative log10 scale, so that one unit is a factor of ten. On to `CCN(CC)c1ccc(C2(C(O)c3ccccn3)CCC2)cc1` (centres unmarked) [Example 18, {1-[4-(diethylamino)phenyl]cyclobutyl}(pyridin-2-yl)methanol], for which the “RAT MICROSOMAL STABILITY (% REMAINING AFTER 30 MINUTES)” value in data set [1] is 0.27%. Moreover, in data set [2], the pIC50 was 6.00 to 6.30. Take `OC(c1ncccn1)C1(c2ccc(OC(F)(F)F)cc2)CCC1` (centres unmarked) [Example 31, pyrimidin-2-yl{1-[4-(trifluoromethoxy)phenyl]cyclobutyl}methanol]: the pIC50 in data set [2] is 5.30 to 5.96.

On to `OC(c1ncccn1)C1(c2cccc(F)c2)CCC1` (centres unmarked) [Example 33, [1-(3-fluorophenyl)cyclobutyl](pyrimidin-2-yl)methanol], for which the pIC50 in data set [2] was 4.70 to 5.29. The same measure, in the same setting: under `OC(c1ncccn1)C1(c2ccc(F)c(F)c2)CCC1` (centres unmarked) [Example 35, [1-(3,4-difluorophenyl)cyclobutyl](pyrimidin-2-yl)methanol] stands 4.70 to 5.29; under `OC(c1ncccn1)C1(c2ccccc2OC(F)(F)F)CCC1` (centres unmarked) [Example 36, pyrimidin-2-yl{1-[2-(trifluoromethoxy)phenyl]cyclobutyl}methanol], 4.70 to 5.29. In the case of `CC(c1cccc(Cl)c1)C1(C(O)c2ccccn2)CCC1` (centres unmarked) [Example 44, {1-[1-(3-chlorophenyl)ethyl]cyclobutyl}(pyridin-2-yl)methanol], the negative logarithm of the IC50 (pIC50) in data set [2] is 4.70 to 5.29.

For the compound `CC(c1cccc(F)c1)C1(C(O)c2ccccn2)CCC1` (centres unmarked) [Example 47, {1-[1-(3-fluorophenyl)ethyl]cyclobutyl}(pyridin-2-yl)methanol], the negative-log IC50 (pIC50) in data set [2] was 5.30 to 5.96. The same measure, in the same setting: as for `CC(c1ccccc1F)C1(C(O)c2ccccn2)CCC1` (centres unmarked) [Example 48, {1-[1-(2-fluorophenyl)ethyl]cyclobutyl}(pyridin-2-yl)methanol], the figure is 4.70 to 5.29; as for `CC(c1ccccc1)C1(C(O)c2ccccn2)CCC1` (centres unmarked) [Example 51, [1-(1-phenylethyl)cyclobutyl](pyridin-2-yl)methanol], 4.70 to 5.29. On to `CC(c1ccc(C(F)(F)F)cc1)C1(C(O)c2ccccn2)CCC1` (centres unmarked) [Example 53, pyridin-2-yl(1-{1-[4-(trifluoromethyl)phenyl]ethyl}cyclobutyl)methanol], for which, in data set [2], the pIC50 was 5.30 to 5.96. As for `OC(c1ccccn1)C1(c2ccccc2)CCOCC1` (centres unmarked) [Example 60, (4-phenyltetrahydro-2H-pyran-4-yl)(pyridin-2-yl)methanol], in data set [2], the pIC50 is 4.70 to 5.29. Consider `OC(c1ccccn1)C1(c2cccc(F)c2)CCOCC1` (centres unmarked) [Example 61, [4-(3-fluorophenyl)tetrahydro-2H-pyran-4-yl](pyridin-2-yl)methanol], for which, in data set [2], the negative logarithm of the IC50 (pIC50) was 4.70 to 5.29. On to `OC(c1ccccn1)C1(c2ccc(F)cc2)CCOCC1` (centres unmarked) [Example 62, [4-(4-fluorophenyl)tetrahydro-2H-pyran-4-yl](pyridin-2-yl)methanol], for which the pIC50 in data set [2] was 4.70 to 5.29. With `OC(c1ccccn1)C1(c2ccc(F)c(F)c2)CCOCC1` (centres unmarked) [Example 63, [4-(3,4-difluorophenyl)tetrahydro-2H-pyran-4-yl](pyridin-2-yl)methanol], the pIC50 in data set [2] was 4.70 to 5.29. As to `OC(c1ccccn1)C1(c2ccc(Cl)cc2)CCOCC1` (centres unmarked) [Example 64, [4-(4-chlorophenyl)tetrahydro-2H-pyran-4-yl](pyridin-2-yl)methanol], in data set [2], the pIC50 is 5.30 to 5.96.

In the case of `OC(c1ccccn1)C1(c2ccc(C(F)(F)F)cc2)CCOCC1` (centres unmarked) [Example 65, pyridin-2-yl{4-[4-(trifluoromethyl)phenyl]tetrahydro-2H-pyran-4-yl}-methanol], in data set [2], the pIC50 is 5.30 to 5.96. `OC(CC1(c2ccccc2)CCC1)c1ccccn1` (centres unmarked) [Example 68, 2-(1-phenylcyclobutyl)-1-(pyridin-2-yl)ethanol]: the pIC50 in data set [2] was 5.30 to 5.96. Turning to `OC(CC1(c2ccc(Cl)cc2)CCC1)c1ccccn1` (centres unmarked) [Example 69, 2-[1-(4-chlorophenyl)cyclobutyl]-1-(pyridin-2-yl)ethanol], in data set [2], the pIC50 is 5.30 to 5.96. As for `OC(CC1(c2ccc(F)cc2)CCC1)c1ccccn1` (centres unmarked) [Example 70, 2-[1-(4-fluorophenyl)cyclobutyl]-1-(pyridin-2-yl)ethanol], the pIC50 in data set [2] was 4.70 to 5.29. In the case of `OC(CC1(c2cccc(F)c2)CCC1)c1ccccn1` (centres unmarked) [Example 71, 2-[1-(3-fluorophenyl)cyclobutyl]-1-(pyridin-2-yl)ethanol], the pIC50 in data set [2] was 5.30 to 5.96.

For `OC(CC1(c2cccc(Cl)c2)CCC1)c1ccccn1` (centres unmarked) [Example 72, 2-[1-(3-chlorophenyl)cyclobutyl]-1-(pyridin-2-yl)ethanol], in data set [2], the pIC50 is 5.30 to 5.96. On to `OC(CC1(c2ccc(Cl)c(Cl)c2)CCC1)c1ccccn1` (centres unmarked) [Example 73, 2-[1-(3,4-dichlorophenyl)cyclobutyl]-1-(pyridin-2-yl)ethanol], for which the pIC50 in data set [2] was 5.30 to 5.96.

Consider `OC(c1ccccn1)C1(c2ccc(C(F)(F)F)cc2)CCOC1` (centres unmarked) [Example 78, pyridin-2-yl{3-[4-(trifluoromethyl)phenyl]tetrahydrofuran-3-yl}methanol], for which the pIC50 in data set [2] is 5.30 to 5.96. For `OC(c1ccccn1)C1(c2cccc(OC(F)(F)F)c2)CCOC1` (centres unmarked) [Example 80, pyridin-2-yl{3-[3-(trifluoromethoxy)phenyl]tetrahydrofuran-3-yl}methanol], the pIC50 in data set [2] is 5.30 to 5.96. Turning to `OC(c1ccccn1)C1(c2cccc(Cl)c2)COC1` (centres unmarked) [Example 86, [3-(3-chlorophenyl)oxetan-3-yl](pyridin-2-yl)methanol], the pIC50 in data set [2] is 5.30 to 5.96. Turning to `NC1CCCCC1C(O)C1(c2ccc(C(F)(F)F)cc2)CCC1` (centres unmarked) [Example 207, (2-aminocyclohexyl){1-[4-(trifluoromethyl)phenyl]cyclobutyl}methanol], the pIC50 in data set [2] is 5.30 to 5.96. With `NC1CCCCC1C(O)C1(c2ccc(OC(F)(F)F)cc2)CCC1` (centres unmarked) [Example 209, (2-aminocyclohexyl){1-[4-(trifluoromethoxy)phenyl]cyclobutyl}methanol], in data set [2], the pIC50 is 5.30 to 5.96. With `NC1CCCCC1C(O)C1(c2cccc(OC(F)(F)F)c2)CCC1` (centres unmarked) [Example 210, (2-aminocyclohexyl){1-[3-(trifluoromethoxy)phenyl]cyclobutyl}methanol], the pIC50 in data set [2] is 5.30 to 5.96.

Consider `NC1CCCCC1C(O)C1(c2ccc(Cl)c(Cl)c2)CCC1` (centres unmarked) [Example 211, (2-aminocyclohexyl) [1-(3,4-dichlorophenyl)cyclobutyl]methanol], for which, in data set [2], the pIC50 is 4.70 to 5.29. Take `NC1CCCC1C(O)C1(c2ccccc2OC(F)(F)F)CCC1` (centres unmarked) [Example 214, (2-aminocyclopentyl){1-[2-(trifluoromethoxy)phenyl]cyclobutyl}methanol]: the pIC50 in data set [2] was 5.30 to 5.96.

`NC1CCCC1C(O)C1(c2ccc(Cl)c(Cl)c2)CCC1` (centres unmarked) [Example 215, (2-aminocyclopentyl) [1-(3,4-dichlorophenyl)cyclobutyl]methanol]: the pIC50 in data set [2] is 6.00 to 6.30. On to `N[C@H]1CCC[C@H]1[C@@H](O)C1(c2ccc(Cl)c(Cl)c2)CCC1` [Example 218, (R)-[(1R,2S)-2-aminocyclopentyl][1-(3,4-dichlorophenyl)cyclobutyl]-methanol], for which, in data set [2], the pIC50 is 5.30 to 5.96. Still for that read-out and setting: under `N[C@H]1CCC[C@@H]1[C@H](O)C1(c2ccc(Cl)c(Cl)c2)CCC1` [Example 219, (S)-[(1S,2S)-2-aminocyclopentyl][1-(3,4-dichlorophenyl)cyclobutyl]-methanol] stands 5.30 to 5.96; under `CC1(O)CC(c2ccnc(C(F)(F)F)c2)(C(O)c2ccccn2)C1` [Example 302, cis-3-[(S)-hydroxy(pyridin-2-yl)methyl]-1-methyl-3-[2-(trifluoromethyl)-pyridin-4-yl]cyclobutanol], 6.00 to 6.30.
